Data taken from US20240067693A1, “POLYPEPTIDES AND USES THEREOF” (MEDIMMUNE LIMITED, priority 2020, published 2024).
Numbered stars: 1 amine (or outer) side, 2 acyl side, 3 side chain; on linkers, the order of the positions; unused ones are H or OH. Bridge positions count the residues as written; N and C are the ends. Square brackets hold non-standard residues; d marks the D form. Side chains are listed from the residue outwards. Peptide text beside a SMILES is read from it. * marks the point of attachment. C18 diacid = O=C(O)CCCCCCCCCCCCCCCCC(=O)*; γGlu = O=C(O)[C@H](CCC(=O)[*:2])N[*:1]; αMeF = C[C@](N)(Cc1ccccc1)C(=O)O; αMeS = C[C@](N)(CO)C(=O)O; Dab = NCC[C@H](N)C(=O)O; Aib = CC(C)(N)C(=O)O

Key:
[1] = target: T1, human amylin receptor (calcitonin receptor co-expressed with receptor activity modifying protein, RAMP3) (hAMYR3) (Homo sapiens, UniProt O60896+P30988); test: cAMP production in 1321N1 cells with stable recombinant expression of human amylin receptor (hAMYR3); format: cell-based; conditions: for Ratio (selectivity hAMYR vs hCTR, ratio of EC50 values at the two receptors): EC50 hCTR / EC50 hAMYR3; for EC50: cAMP, 1321N1 cells, assay buffer with 0.1% BSA, read-out: EC50 (pM) hAMYR3
T1 construct: expressed in transfected cells
T1 sequence (P30988 25-474): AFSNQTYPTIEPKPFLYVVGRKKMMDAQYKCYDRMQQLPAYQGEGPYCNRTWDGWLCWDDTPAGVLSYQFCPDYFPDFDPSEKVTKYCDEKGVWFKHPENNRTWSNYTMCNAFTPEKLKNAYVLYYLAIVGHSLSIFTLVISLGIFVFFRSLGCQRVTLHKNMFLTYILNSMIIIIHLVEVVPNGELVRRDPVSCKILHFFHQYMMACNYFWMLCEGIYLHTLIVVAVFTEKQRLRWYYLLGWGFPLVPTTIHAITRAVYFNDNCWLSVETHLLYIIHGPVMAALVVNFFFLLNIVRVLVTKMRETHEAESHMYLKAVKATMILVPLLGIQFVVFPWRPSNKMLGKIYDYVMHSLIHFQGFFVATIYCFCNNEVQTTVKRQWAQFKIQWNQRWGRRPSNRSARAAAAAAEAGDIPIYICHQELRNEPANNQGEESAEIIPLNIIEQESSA
T1 sequence (O60896 24-148 partner): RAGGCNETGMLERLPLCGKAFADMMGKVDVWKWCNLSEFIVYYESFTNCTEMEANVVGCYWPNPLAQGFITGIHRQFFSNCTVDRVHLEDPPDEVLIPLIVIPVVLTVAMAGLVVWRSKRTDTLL
Experimental: (§1) The functional activities of lipidated pramlintide analogue peptides, such as cAMP production, were tested in 1321N1 cell line with stable recombinant expression of human calcitonin receptor (hCTR) or human amylin receptor (calcitonin receptor co-expressed with receptor activity modifying protein, RAMP3) (hAMYR3) or HEK cells with stable recombinant expression of rat calcitonin receptor (rat CTR) or rat amylin receptor (calcitonin receptor co-expressed with receptor activity modifying protein, RAMP3) (Rat AMYR3).
(§2) Cryopreserved cell stock was thawed rapidly in a water-bath, suspended in assay buffer (0.1% BSA (Sigma # A3059) in HBSS (Sigma # H8264) with 25 mM HEPES, pH 7.4 and containing 0.5 mM IB MX (Sigma# 17018)) and spun at 240×g for 5 minutes. Cells were re-suspended in assay buffer at a batch-dependent optimized concentration (e.g. hCTR cells at 0.125×10^5 cells/mL, hAMYR3 cells at 0.125×10^5 cells/mL, rat CTR cells at 1x10^5 cells/mL, rat AMYR3 at 2×10^5 cells/mL).
(§3) The test peptide stock was prepared in DMSO and diluted in assay buffer to reach stated concentrations and transferred in duplicates into a 384-black shallow well microtitre assay plate (Corning # 3676). Cells were added to the assay plate, incubated at room temperature for 30 minutes and the cAMP level measured using cAMP dynamic 2 HTRF kit (Cisbio, Cat # 62AM4PEJ), following the two step protocol as per manufacturer's recommendations. The plates were read on an Envision (Perkin Elmer) using excitation wavelength of 320 nm and emission wavelengths of 620nm & 665 nm.
(§4) Data was transformed to % Delta F as described in the manufacturer's guidelines and analyzed as percent activation of maximal amylin or calcitonin effect by 4-parameter logistic fit to determine EC50 values. The selectivity of a peptide to hAMYR vs hCTR is defined as a ratio of EC50 values at the two receptors.

[2] = target: T2, human calcitonin receptor (hCTR) (Homo sapiens, UniProt P30988); test: cAMP production in 1321N1 cells with stable recombinant expression of human calcitonin receptor (hCTR); format: cell-based; conditions: cAMP, 1321N1 cells, assay buffer with 0.1% BSA; read-out: EC50 (pM) hCTR
T2 construct: expressed in transfected cells
T2 sequence (P30988 25-474): T1 sequence (P30988 25-474)
Experimental: as §1, §2, §3, §4

| Structure (SMILES) | Ratio (selectivity hAMYR vs hCTR, ratio of EC50 values at the two receptors) [1] | EC50 [1] | EC50 [2] |
| --- | --- | --- | --- |
| CC[C@H](C)[C@@H]1NC(=O)[C@H](CC(N)=O)NC(=O)[C@@H](NC(=O)[C@@H](N)CCCCNC(=O)CC[C@H](NC(=O)CC[C@H](NC(=O)CCCCCCCCCCCCCCCCC(=O)O)C(=O)O)C(=O)O)CSSC[C@@H](C(=O)N[C@@H](C)C(=O)N[C@H](C(=O)N[C@@H](CCC(N)=O)C(=O)N[C@@H](CCCNC(=N)N)C(=O)N[C@@H](CC(C)C)C(=O)N[C@@H](C)C(=O)N[C@@H](CC(N)=O)C(=O)N[C@@H](Cc2ccccc2)C(=O)N[C@@H](CC(C)C)C(=O)N[C@H](C(=O)N[C@@H](Cc2c[nH]cn2)C(=O)N[C@@H](CO)C(=O)N[C@@H](CO)C(=O)N[C@@H](CCN)C(=O)N[C@@H](CC(N)=O)C(=O)N[C@@H](Cc2ccccc2)C(=O)NCC(=O)N2CCC[C@H]2C(=O)N[C@H](C(=O)N[C@@H](CC(C)C)C(=O)N2CCC[C@H]2C(=O)N2CCC[C@H]2C(=O)N[C@H](C(=O)N[C@@H](CC(N)=O)C(=O)N[C@H](C(=O)NCC(=O)N[C@@H](CO)C(=O)N[C@@H](CCCNC(=N)N)C(=O)N[C@H](C(=O)N[C@@H](Cc2ccc(O)cc2)C(N)=O)[C@@H](C)O)C(C)C)[C@@H](C)O)[C@@H](C)CC)C(C)C)[C@@H](C)O)NC(=O)[C@H]([C@@H](C)O)NC(=O)[C@H](C)NC1=O [Peptide 27, K(γE-γE-C18diacid)[CNIATC]ATQRLANFLVHSS(Dab)NFGPILPPTNVGSRTY-amide] (H-K([γGlu-γGlu-C18 diacid])CNIATCATQRLANFLVHSS[Dab]NFGPILPPTNVGSRTY-NH2; disulfide 2-7; N-terminus assumed) | 5 | 134 pM | 731 pM |
| CC[C@H](C)[C@H](NC(=O)[C@@H]1CCCN1C(=O)CNC(=O)[C@H](Cc1ccccc1)NC(=O)[C@H](CC(N)=O)NC(=O)[C@H](CCN)NC(=O)[C@H](CO)NC(=O)[C@H](CO)NC(=O)[C@H](Cc1c[nH]cn1)NC(=O)[C@@H](NC(=O)[C@H](CC(C)C)NC(=O)[C@H](Cc1ccccc1)NC(=O)[C@H](CC(N)=O)NC(=O)[C@H](C)NC(=O)[C@H](CC(C)C)NC(=O)[C@H](CCCNC(=N)N)NC(=O)[C@H](CCC(N)=O)NC(=O)[C@@H](NC(=O)[C@H](C)NC(=O)[C@@H]1CSSC[C@H](NC(=O)[C@H](CCCCN)NC(=O)[C@@H](N)CCCCNC(=O)CC[C@H](NC(=O)CCCCCCCCCCCCCCCCC(=O)O)C(=O)O)C(=O)N[C@@H](CC(N)=O)C(=O)N[C@@H]([C@@H](C)O)C(=O)N[C@@H](C)C(=O)N[C@@H]([C@@H](C)O)C(=O)N1)[C@@H](C)O)C(C)C)C(=O)N[C@@H](CC(C)C)C(=O)N1CCC[C@H]1C(=O)N1CCC[C@H]1C(=O)N[C@H](C(=O)N[C@@H](CC(N)=O)C(=O)N[C@H](C(=O)NCC(=O)N[C@@H](CO)C(=O)N[C@@H](CC(N)=O)C(=O)N[C@H](C(=O)N[C@@H](Cc1ccc(O)cc1)C(N)=O)[C@@H](C)O)C(C)C)[C@@H](C)O [Peptide 29, K(γE-C18diacid)K[CNTATC]ATQRLANFLVHSS(Dab)NFGPILPPTNVGSNTY-amide] (H-K([γGlu-C18 diacid])KCNTATCATQRLANFLVHSS[Dab]NFGPILPPTNVGSNTY-NH2; disulfide 3-8; N-terminus assumed) | 34 | 243 pM | 8210 pM |

Further lines, results first:

| Ratio (selectivity hAMYR vs hCTR, ratio of EC50 values at the two receptors) [1] | EC50 [1] | EC50 [2] | Structure (SMILES) |
| --- | --- | --- | --- |
| 40 | 162 pM | 6540 pM | CC[C@H](C)[C@H](NC(=O)[C@@H]1CCCN1C(=O)CNC(=O)[C@H](Cc1ccccc1)NC(=O)[C@H](CC(N)=O)NC(=O)[C@H](CC(N)=O)NC(=O)[C@](C)(CO)NC(=O)[C@H](CO)NC(=O)[C@H](Cc1c[nH]cn1)NC(=O)[C@@H](NC(=O)[C@H](CC(C)C)NC(=O)[C@H](Cc1ccccc1)NC(=O)[C@H](CC(N)=O)NC(=O)[C@H](C)NC(=O)[C@H](CC(C)C)NC(=O)[C@H](CCCNC(=N)N)NC(=O)[C@H](CCC(N)=O)NC(=O)[C@@H](NC(=O)[C@H](C)NC(=O)[C@@H]1CSSC[C@H](NC(=O)[C@@H](N)CCCCNC(=O)CC[C@H](NC(=O)CC[C@H](NC(=O)CCCCCCCCCCCCCCCCC(=O)O)C(=O)O)C(=O)O)C(=O)N[C@@H](CC(N)=O)C(=O)N[C@@H]([C@@H](C)O)C(=O)N[C@@H](C)C(=O)N[C@@H]([C@@H](C)O)C(=O)N1)[C@@H](C)O)C(C)C)C(=O)N[C@@H](CC(C)C)C(=O)N1CCC[C@H]1C(=O)N1CCC[C@H]1C(=O)N[C@H](C(=O)N[C@@H](CC(N)=O)C(=O)N[C@H](C(=O)NCC(=O)N[C@@H](CO)C(=O)N[C@@H](CC(N)=O)C(=O)N[C@H](C(=O)N[C@@H](Cc1ccc(O)cc1)C(N)=O)[C@@H](C)O)C(C)C)[C@@H](C)O [Peptide 22, K(γE-γE-C18diacid)[CNTATC]ATQRLANFLVHS(αMeSer)NNFGPILPPTNVGSNTY-amide] (H-K([γGlu-γGlu-C18 diacid])CNTATCATQRLANFLVHS[αMeS]NNFGPILPPTNVGSNTY-NH2; disulfide 2-7; N-terminus assumed) |
| 2 | 238 pM | 589 pM | CC[C@H](C)[C@H](NC(=O)[C@@H]1CCCN1C(=O)CNC(=O)[C@](C)(Cc1ccccc1)NC(=O)[C@H](CC(N)=O)NC(=O)[C@H](CC(N)=O)NC(=O)[C@H](CO)NC(=O)[C@H](CO)NC(=O)[C@H](Cc1c[nH]cn1)NC(=O)[C@@H](NC(=O)[C@H](CC(C)C)NC(=O)[C@H](Cc1ccccc1)NC(=O)[C@H](CC(N)=O)NC(=O)[C@H](C)NC(=O)[C@H](CC(C)C)NC(=O)[C@H](CCCNC(=N)N)NC(=O)[C@H](CCC(N)=O)NC(=O)[C@@H](NC(=O)[C@H](C)NC(=O)[C@@H]1CSSC[C@H](NC(=O)[C@@H](N)CCCCNC(=O)CC[C@H](NC(=O)CC[C@H](NC(=O)CCCCCCCCCCCCCCCCC(=O)O)C(=O)O)C(=O)O)C(=O)N[C@@H](CC(N)=O)C(=O)N[C@@H]([C@@H](C)O)C(=O)N[C@@H](C)C(=O)N[C@@H]([C@@H](C)O)C(=O)N1)[C@@H](C)O)C(C)C)C(=O)N[C@@H](CC(C)C)C(=O)N1CCC[C@H]1C(=O)N1CCC[C@H]1C(=O)N[C@H](C(=O)N[C@@H](CCC(=O)O)C(=O)N[C@H](C(=O)NCC(=O)N[C@@H](CO)C(=O)N[C@@H](CC(N)=O)C(=O)N[C@H](C(=O)N[C@@H](Cc1ccc(O)cc1)C(N)=O)[C@@H](C)O)C(C)C)[C@@H](C)O [Peptide 23, K(γE-γE-C18diacid)[CNTATC]ATQRLANFLVHSSNN(αMePhe)GPILPPTEVGSNTY-amide] (H-K([γGlu-γGlu-C18 diacid])CNTATCATQRLANFLVHSSNN[αMeF]GPILPPTEVGSNTY-NH2; disulfide 2-7) |
| 7 | 409 pM | 2800 pM | CC[C@H](C)[C@H](NC(=O)[C@@H]1CCCN1C(=O)CNC(=O)[C@](C)(Cc1ccccc1)NC(=O)[C@H](CC(N)=O)NC(=O)[C@H](CC(N)=O)NC(=O)[C@H](CO)NC(=O)[C@H](CO)NC(=O)[C@H](Cc1c[nH]cn1)NC(=O)C(C)(C)NC(=O)[C@H](CC(C)C)NC(=O)[C@H](Cc1ccccc1)NC(=O)[C@H](CC(N)=O)NC(=O)[C@H](C)NC(=O)[C@H](CC(C)C)NC(=O)[C@H](CCCNC(=N)N)NC(=O)[C@H](CCC(N)=O)NC(=O)[C@@H](NC(=O)[C@H](C)NC(=O)[C@@H]1CSSC[C@H](NC(=O)[C@@H](N)CCCCNC(=O)CC[C@H](NC(=O)CC[C@H](NC(=O)CCCCCCCCCCCCCCCCC(=O)O)C(=O)O)C(=O)O)C(=O)N[C@@H](CC(N)=O)C(=O)N[C@@H]([C@@H](C)O)C(=O)N[C@@H](C)C(=O)N[C@@H]([C@@H](C)O)C(=O)N1)[C@@H](C)O)C(=O)N[C@@H](CC(C)C)C(=O)N1CCC[C@H]1C(=O)N1CCC[C@H]1C(=O)N[C@H](C(=O)N[C@@H](CC(N)=O)C(=O)N[C@H](C(=O)NCC(=O)N[C@@H](CO)C(=O)N[C@@H](CC(N)=O)C(=O)N[C@H](C(=O)N[C@@H](Cc1ccc(O)cc1)C(N)=O)[C@@H](C)O)C(C)C)[C@@H](C)O [Peptide 26, K(γE-γE-C18diacid)[CNTATC]ATQRLANFL(Aib)HSSNN(αMePhe)GPILPPTNVGSNTY-amide] (H-K([γGlu-γGlu-C18 diacid])CNTATCATQRLANFL[Aib]HSSNN[αMeF]GPILPPTNVGSNTY-NH2; disulfide 2-7) |
